The test deals with Adenosine receptor A2a (Homo sapiens) (UniProt P29274). In words: Negative allosteric modulation of A2AR (unknown origin) expressed in CHO cells in presence of adenosine by CamBio assay.
Chain of Adenosine receptor A2a (Homo sapiens) (P29274 whole entry, looked up): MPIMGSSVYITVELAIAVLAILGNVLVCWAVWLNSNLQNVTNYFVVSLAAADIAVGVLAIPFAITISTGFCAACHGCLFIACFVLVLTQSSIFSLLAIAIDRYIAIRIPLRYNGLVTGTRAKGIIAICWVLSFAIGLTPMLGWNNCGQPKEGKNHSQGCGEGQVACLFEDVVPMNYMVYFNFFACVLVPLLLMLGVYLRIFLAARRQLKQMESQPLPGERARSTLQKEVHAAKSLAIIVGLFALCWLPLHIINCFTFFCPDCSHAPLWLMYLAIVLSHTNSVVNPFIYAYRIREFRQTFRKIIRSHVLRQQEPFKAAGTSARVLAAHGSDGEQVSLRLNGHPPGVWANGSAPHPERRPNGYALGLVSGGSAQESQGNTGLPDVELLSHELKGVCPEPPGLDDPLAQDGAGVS

By IC50 is commonly meant the concentration needed to halve the response being measured. In the case of `N#Cc1c(N)nc(N2CCCCC2)c(C#N)c1-c1cccnc1`, the 50% inhibitory concentration (IC50) is 9 nM.

The record behind these values is BindingDB's records for PubMed 39882870 (University of Modena and Reggio Emilia).
